The subject of one series is human washed platelets. Kind of series: CCCP-induced GPIbα shedding from washed platelets. In kind it is cell-based. As to conditions: CCCP-treated human platelets. As to the method:
(§1) Flow cytometric analysis was performed as previously described. Briefly, iPSC‐ and ESC‐derived MKs on days 22–24 and platelets in their supernatants were stained with combinations of antibodies for 30 minutes on ice (for MKs) or at room temperature (for platelets). Samples of MKs/platelets were then washed, diluted with staining medium (phosphate‐buffered saline containing 3% fetal bovine serum), and analyzed using flow cytometry (FACSAria; BD). Trucount tubes (BD) were used to quantify the MKs and platelets.
Washed platelets were prepared as described elsewhere.

The target in the next series is T1, human MMP3 (Homo sapiens, UniProt P08254).
T1 construct: purchased EMD Millipore
Kind of series: MMP and ADAM activity assay (fluorescence-based): MMP3. In kind it is biochemical. As to conditions: cell-free fluorescence assay. As to the method:
(§2) KP‐457 and GM‐6001 were tested for their ability to inhibit MMP‐ and ADAM‐catalyzed cleavage of substrates in a fluorescence‐based assay. Human ADAM17, ADAM10, and MMP17 were from R&D Systems (Minneapolis, MN, http://www.rndsystems.com), and human MMP1, MMP2, MMP3, MMP8, MMP9, MMP13, and MMP14 were from EMD Millipore. MMP1, MMP2, MMP8, MMP9, MMP13, and MMP17 were activated using p‐aminophenylmercuric acetate (Sigma‐Aldrich) before testing. Fluorogenic substrates for measuring activity of ADAM10 and ADAM17 [Nma‐[…](Dnp)r‐NH2, based on the cleavage site of TNF‐α]; MMP1, MMP9, MMP13, and MMP14 [Dnp‐P‐Cha‐GC(Me)HAK(N‐Me‐Abz)‐NH2]; MMP3 [MOCAc‐RPKPVE‐Nva‐WRK(Dnp)‐NH2]; and MMP2, MMP8, and MMP17 [MOCAc‐PLGL‐A2pr(Dnp)‐AR‐NH2] were all provided by Peptide Institute (Osaka, Japan, https://www.peptide.co.jp/en) and used as substrates. In addition, inhibitory activities were measured using LC/MS/MS with a GPIbα‐based substrate peptide ([…]), a C terminal‐based standard peptide ([…]), and an internal standard peptide ([…]). These peptides were synthetized by Scrum (Tokyo, Japan, http://www.scrum‐net.co.jp/english/top_en.htm).

A further series deals with T2, human ADAM10 (Homo sapiens, UniProt O14672).
T2 construct: purchased R&D Systems
Description: MMP and ADAM activity assay (fluorescence-based): ADAM10. In kind it is biochemical. The note with it: cell-free fluorescence assay. The procedure: as §2

A further series addresses T3, human MMP2 (Homo sapiens, UniProt P08253).
T3 construct: purchased EMD Millipore
Description: MMP and ADAM activity assay (fluorescence-based): MMP2. The format is biochemical. The note with it: cell-free fluorescence assay.
Excerpt: as §2, with “Human” for “KP‐457 and GM‐6001 were tested for their ability to inhibit MMP‐ and ADAM‐catalyzed cleavage of substrates in a fluorescence‐based assay. Human”

In a further series the target is T4, human MMP9 (Homo sapiens, UniProt P14780).
T4 construct: purchased EMD Millipore
Kind of series: MMP and ADAM activity assay (fluorescence-based): MMP9. In kind it is biochemical. The note with it: cell-free fluorescence assay.
Excerpt: as §2, with “Human” for “KP‐457 and GM‐6001 were tested for their ability to inhibit MMP‐ and ADAM‐catalyzed cleavage of substrates in a fluorescence‐based assay. Human”

In another series the target is T5, human MMP1 (Homo sapiens, UniProt P03956).
T5 construct: purchased EMD Millipore
Kind of series: MMP and ADAM activity assay (fluorescence-based): MMP1. In kind it is biochemical. The note with it: cell-free fluorescence assay.
Excerpt: as §2, with “Human” for “KP‐457 and GM‐6001 were tested for their ability to inhibit MMP‐ and ADAM‐catalyzed cleavage of substrates in a fluorescence‐based assay. Human”

Series [1] has as its system thrombus formation in NOG mice. Kind of series: In vivo imaging of thrombus formation by transfused iPSC platelets. More on the design: species or system mouse. The note with it: 1 × 10^7 CD41a+ iPSC platelets generated with or without KP-457, irradiated NOG mice, laser injury; p = .0556. The procedure:
The procedure was identical to that in the previous report. Small vessels (<25 μm in diameter) within mesenteric capillaries of male NOD/SCID/IL‐2Rg‐null (NOG) mice were evaluated. NOG mice were purchased from the Central Institute for Experimental Animals (Kawasaki, Kanagawa, Japan, http://www.ciea.or.jp/en/index.html).

The target of series [2] is T6, Human ADAM17 (Homo sapiens, UniProt P78536).
T6 construct: purchased R&D Systems
Description: Cleavage of GPIbα-based substrate peptide by ADAM17 (LC/MS/MS). The format is biochemical. The note with it: GPIbα-based substrate peptide, LC/MS/MS; read-out: IC50, inhibition of C-terminal cleavage of the GPIbα sequence by ADAM17.
Excerpt: as §2, with “Human” for “KP‐457 and GM‐6001 were tested for their ability to inhibit MMP‐ and ADAM‐catalyzed cleavage of substrates in a fluorescence‐based assay. Human”
(1 picture or pasted object on this page, not shown here)

Series [3] concerns the target T6, Human ADAM17. Description: MMP and ADAM activity assay (fluorescence-based, cell-free): ADAM17. In kind it is biochemical.
Excerpt: as §2, with “Human” for “KP‐457 and GM‐6001 were tested for their ability to inhibit MMP‐ and ADAM‐catalyzed cleavage of substrates in a fluorescence‐based assay. Human”

For series [4], the system named is platelets derived from human ESCs. Description: GPIbα retention in platelets derived from human ESCs. The format is cell-based. The note with it: KP-457 15 µmol/L. The procedure: Directed differentiation to MKs and platelets from iPSCs and ESCs was performed as described previously. Briefly, 3 × 10^4 HPCs derived from iPS‐sacs on C3H10T1/2 feeder cells in the presence of 20 ng/ml vascular endothelial growth factor were transferred on day 14 of culture onto C3H10T1/2 feeder cells in differentiation medium supplemented with 50 ng/ml stem cell factor, 100 ng/ml thrombopoietin, 25 U/ml heparin sodium, and test compounds at 24°C or 37°C. The medium was refreshed every 3 days, and nonadherent cells were collected and analyzed on days 22–24.
as §1
Fig. S4. The inhibitory effect of KP-457 on GPIbα shedding in platelets derived from human
ESCs and immortalized megakaryocyte progenitor cell lines (imMKCLs).
Percentages of GPIbα-expressing CD41a+ platelets produced from human ESCs (A) and […]

The test system of a further series is platelet aggregation. Description: Platelet aggregation induced by thrombin or collagen. In kind it is cell-based.
The next series deals with T7, human MMP8 (Homo sapiens, UniProt P22894).
T7 construct: purchased EMD Millipore
Description: MMP and ADAM activity assay (fluorescence-based): MMP8. The format is biochemical. As to conditions: cell-free fluorescence assay.
Excerpt: as §2, with “Human” for “KP‐457 and GM‐6001 were tested for their ability to inhibit MMP‐ and ADAM‐catalyzed cleavage of substrates in a fluorescence‐based assay. Human”

Another series deals with T8, human MMP14 (Homo sapiens, UniProt P50281).
T8 construct: purchased EMD Millipore
Kind of series: MMP and ADAM activity assay (fluorescence-based): MMP14. The format is biochemical. As to conditions: cell-free fluorescence assay. The procedure:
as §2

Another series concerns dogs. Kind of series: Good laboratory practice systemic toxicity study in dogs. The format is in vivo. As to conditions: intravenously once a day for 4 weeks, doses up to 3 mg/kg (maximal dose tested), data not shown.
The next series deals with T9, human MMP13 (Homo sapiens, UniProt P45452).
T9 construct: purchased EMD Millipore
Description: MMP and ADAM activity assay (fluorescence-based): MMP13. In kind it is biochemical. As to conditions: cell-free fluorescence assay.
Excerpt: as §2, with “Human” for “KP‐457 and GM‐6001 were tested for their ability to inhibit MMP‐ and ADAM‐catalyzed cleavage of substrates in a fluorescence‐based assay. Human”

By IC50 is commonly meant the point on the concentration scale where inhibition reaches its midpoint.

Molecules are shown by their SMILES.

T6 sequence (P78536 215-824): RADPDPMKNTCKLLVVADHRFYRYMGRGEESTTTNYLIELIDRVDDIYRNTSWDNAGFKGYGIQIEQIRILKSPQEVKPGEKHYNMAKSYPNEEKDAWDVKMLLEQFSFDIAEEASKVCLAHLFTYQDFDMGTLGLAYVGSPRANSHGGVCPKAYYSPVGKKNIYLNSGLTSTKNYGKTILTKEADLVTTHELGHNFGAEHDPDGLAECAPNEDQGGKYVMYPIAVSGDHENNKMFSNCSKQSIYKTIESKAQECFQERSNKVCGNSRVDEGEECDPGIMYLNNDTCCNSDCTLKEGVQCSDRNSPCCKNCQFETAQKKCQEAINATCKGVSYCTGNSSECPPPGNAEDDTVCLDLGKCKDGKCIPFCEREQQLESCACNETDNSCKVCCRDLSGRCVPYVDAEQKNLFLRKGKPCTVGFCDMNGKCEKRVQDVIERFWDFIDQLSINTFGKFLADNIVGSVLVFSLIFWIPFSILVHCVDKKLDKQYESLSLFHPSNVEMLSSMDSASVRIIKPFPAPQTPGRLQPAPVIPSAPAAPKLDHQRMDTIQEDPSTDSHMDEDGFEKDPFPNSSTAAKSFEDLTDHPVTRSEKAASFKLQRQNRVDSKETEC
T3 sequence (P08253 110-660): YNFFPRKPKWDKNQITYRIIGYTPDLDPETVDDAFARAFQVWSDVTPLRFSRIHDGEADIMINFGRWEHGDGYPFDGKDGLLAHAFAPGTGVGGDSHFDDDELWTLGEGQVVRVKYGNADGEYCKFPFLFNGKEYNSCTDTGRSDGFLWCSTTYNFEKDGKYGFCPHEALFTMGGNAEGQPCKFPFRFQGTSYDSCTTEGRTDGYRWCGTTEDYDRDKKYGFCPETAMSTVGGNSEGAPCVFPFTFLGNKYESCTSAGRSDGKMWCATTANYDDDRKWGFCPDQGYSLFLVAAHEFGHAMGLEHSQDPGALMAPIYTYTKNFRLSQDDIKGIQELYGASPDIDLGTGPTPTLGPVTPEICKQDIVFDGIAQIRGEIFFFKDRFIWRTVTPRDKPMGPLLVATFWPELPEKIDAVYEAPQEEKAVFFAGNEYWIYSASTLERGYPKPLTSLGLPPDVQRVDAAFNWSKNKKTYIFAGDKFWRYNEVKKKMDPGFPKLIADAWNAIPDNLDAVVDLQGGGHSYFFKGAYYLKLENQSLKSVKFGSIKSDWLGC
T2 sequence (O14672 214-748): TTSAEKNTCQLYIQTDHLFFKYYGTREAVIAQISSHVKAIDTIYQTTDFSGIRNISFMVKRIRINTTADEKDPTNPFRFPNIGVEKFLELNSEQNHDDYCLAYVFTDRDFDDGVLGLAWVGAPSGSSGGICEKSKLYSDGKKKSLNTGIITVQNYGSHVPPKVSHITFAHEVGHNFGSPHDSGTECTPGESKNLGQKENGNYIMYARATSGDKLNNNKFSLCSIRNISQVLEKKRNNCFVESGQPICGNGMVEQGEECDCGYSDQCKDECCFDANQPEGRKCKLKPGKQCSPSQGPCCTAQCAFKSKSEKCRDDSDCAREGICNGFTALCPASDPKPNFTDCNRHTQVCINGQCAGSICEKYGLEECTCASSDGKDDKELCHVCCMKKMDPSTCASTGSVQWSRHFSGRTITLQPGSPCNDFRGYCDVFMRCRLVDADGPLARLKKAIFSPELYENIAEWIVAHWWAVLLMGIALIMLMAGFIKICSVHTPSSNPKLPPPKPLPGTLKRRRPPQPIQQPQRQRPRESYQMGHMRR
T1 sequence (P08254 100-477): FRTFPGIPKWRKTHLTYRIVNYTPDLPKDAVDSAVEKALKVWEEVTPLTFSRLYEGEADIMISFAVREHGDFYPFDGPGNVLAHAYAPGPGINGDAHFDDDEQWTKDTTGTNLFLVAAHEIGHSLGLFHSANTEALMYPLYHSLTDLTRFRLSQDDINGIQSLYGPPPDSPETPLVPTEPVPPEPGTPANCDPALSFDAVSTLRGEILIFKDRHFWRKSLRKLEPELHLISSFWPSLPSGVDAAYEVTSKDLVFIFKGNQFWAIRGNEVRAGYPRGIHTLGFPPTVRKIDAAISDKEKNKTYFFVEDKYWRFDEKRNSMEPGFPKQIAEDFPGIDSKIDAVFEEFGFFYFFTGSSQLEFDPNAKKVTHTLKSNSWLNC
T4 sequence (P14780 107-707 limits assumed): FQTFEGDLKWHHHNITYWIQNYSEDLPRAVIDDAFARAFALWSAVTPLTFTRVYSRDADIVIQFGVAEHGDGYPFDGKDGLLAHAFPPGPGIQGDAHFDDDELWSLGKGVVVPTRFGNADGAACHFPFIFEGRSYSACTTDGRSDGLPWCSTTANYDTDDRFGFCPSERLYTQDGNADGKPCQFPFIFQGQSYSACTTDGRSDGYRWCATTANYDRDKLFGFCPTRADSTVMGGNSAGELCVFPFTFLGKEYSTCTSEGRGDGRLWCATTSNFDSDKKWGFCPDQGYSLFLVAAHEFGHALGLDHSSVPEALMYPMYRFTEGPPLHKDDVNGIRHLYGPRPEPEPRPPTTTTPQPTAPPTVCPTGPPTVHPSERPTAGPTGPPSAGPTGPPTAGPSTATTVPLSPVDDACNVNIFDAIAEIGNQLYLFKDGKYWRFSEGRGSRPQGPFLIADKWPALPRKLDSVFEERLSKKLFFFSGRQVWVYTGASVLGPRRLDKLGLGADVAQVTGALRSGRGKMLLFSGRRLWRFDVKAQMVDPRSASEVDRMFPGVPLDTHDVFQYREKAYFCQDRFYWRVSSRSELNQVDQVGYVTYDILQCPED
T5 sequence (P03956 100-469): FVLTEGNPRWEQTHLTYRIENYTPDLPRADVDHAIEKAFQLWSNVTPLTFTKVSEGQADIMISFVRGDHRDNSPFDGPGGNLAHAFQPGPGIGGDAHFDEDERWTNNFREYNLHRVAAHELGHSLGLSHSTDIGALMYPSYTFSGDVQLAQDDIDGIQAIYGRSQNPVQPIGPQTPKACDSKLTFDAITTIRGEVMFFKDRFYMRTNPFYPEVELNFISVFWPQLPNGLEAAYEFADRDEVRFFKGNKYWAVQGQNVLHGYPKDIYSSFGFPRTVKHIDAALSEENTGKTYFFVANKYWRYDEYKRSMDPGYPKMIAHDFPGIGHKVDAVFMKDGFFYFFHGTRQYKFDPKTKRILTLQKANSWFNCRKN
T7 sequence (P22894 101-467): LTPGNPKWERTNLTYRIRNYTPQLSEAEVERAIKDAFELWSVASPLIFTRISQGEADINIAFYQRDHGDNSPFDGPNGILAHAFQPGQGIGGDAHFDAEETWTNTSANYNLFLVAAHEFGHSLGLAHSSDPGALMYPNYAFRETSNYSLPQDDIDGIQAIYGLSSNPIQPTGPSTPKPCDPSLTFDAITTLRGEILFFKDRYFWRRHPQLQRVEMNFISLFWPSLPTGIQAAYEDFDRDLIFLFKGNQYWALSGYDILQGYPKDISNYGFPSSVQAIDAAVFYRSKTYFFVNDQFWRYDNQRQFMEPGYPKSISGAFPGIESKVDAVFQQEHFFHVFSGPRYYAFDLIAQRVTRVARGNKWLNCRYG

In the case of `CC#CCOc1ccc(S(=O)(=O)CC(c2ccc(CNS(C)(=O)=O)cc2)N(O)C=O)cc1` (centres unmarked) [KP-457, N‐(2‐{[4‐(but‐2‐yn‐1‐yloxy)phenyl]sulfonyl}‐1‐[4‐(methylsulfonamidomethyl)phenyl]ethyl)‐N‐hydroxyformamide], the “potency relative to GM-6001, inhibition of GPIbα shedding in the cellular assay” value in the series on human washed platelets is 10 times. The half-maximal inhibitory concentration (IC50) against human MMP3 was 9760 nM; against human ADAM10, 748 nM; on human MMP2, 717 nM; on human MMP9, 5410 nM; at human MMP1, greater than 100000 nM; at Human ADAM17 [2] it was 10.6 nM. Besides, the concentration for half-maximal inhibition (IC50) on Human ADAM17 [3] (cell-free fluorescence assay, TNF-α cleavage site substrate) stood at 11.1 nM; against human MMP8, 2200 nM; at human MMP14, 2140 nM; against human MMP13 it was 930 nM. Also, in series [1], the “iPSC platelets contributing to thrombus formation in vivo” value is recorded as “higher number of iPSC platelets contributed to thrombus formation”. Further, the “potency relative to GM-6001, inhibition of cleavage of the TNF-α sequence” value on Human ADAM17 [3] (cell-free enzyme assay) is reported as 10 times. Also, the “selectivity for ADAM17 over other MMPs and ADAM10” value on Human ADAM17 [3] (cell-free enzyme assays) is recorded as greater than 50 times. The “GPIbα retention in platelets derived from human ESCs” value in series [4] is “consistently observed”. Further, the “effect on platelet aggregation induced by thrombin or collagen” value in the series on platelet aggregation is on record as “no adverse effects”. The systemic toxicity entry in the series on dogs was “neither genotoxicity nor systemic toxicity”.

(Values after article PMC5442763, “Selective Inhibition of ADAM17 Efficiently Mediates Glycoprotein Ibα Retention During Ex Vivo Generation of Human Induced Pluripotent Stem Cell‐Derived Platelets” (Stem Cells Translational Medicine, 2016).)
